This is an account of results in US9060997B2, “Antifolate compounds for the treatment of melanoma” (UNIVERSIDAD DE MURCIA, priority 2007, dated 2015).

One assay concerns DHFR mRNA and protein. Briefly: DHFR mRNA (real-time PCR) and protein in SkMel-28. Type of assay: cell-based, human. Conditions: SkMel-28, 50 μM. The protocol: Data were obtained by real time PCR and compared with the relative expression of DHFR in HeM cells (zero relative gene expression). Zero time represents the level of DHFR in untreated SkMel-28 cells.
cDNA samples (1 μL) were used for real-time PCR in a total volume of 20 μL using SYBR Green Reagent (Applied Biosystems) and specific primers on a 7500 Real Time PCR System of Applied Biosystems. The PCR amplification cycles included denaturation 95° C., 15 min; to activate HotStar Taq DNA polymerase and to minimize primer-dimer contribution), and amplification [over 40-50 cycles including denaturation (94° C.; 30 s), annealing (55° C.; 30 s), and extension (72° C.; 1 min)]. All PCR reactions were performed in triplicate and from at least two independent experiments. Non-RT control and negative control samples (without template) were processed in the same manner. […] Amplification of target gene sequences were compared against serial dilutions of know quantities of their purified cDNA fragments, and normalized to the abundance of the house-keeping gene β-actin.
Protein lysates were prepared from specified cells, separated by SDS-polyacrylamide gel electrophoresis (PAGE), transferred to nitrocellulose membranes, and analyzed by immunoblotting. […] Bound antibodies were detected by chemiluminiscence (ECL Plus, GE Healthcare). […]
(Real-time PCR tracks product formation cycle by cycle.)

For assay [1], the system named is B16/F10 melanoma cell tumours. In words: Primary tumour model, B16/F10 melanoma in C57/B16 mice. Type of assay: in vivo, mouse. The text has this: Translational therapy was then designed to probe the efficacy of this combination on mice induced melanoma tumor. Injection of 5×10^5 B16/F10 melanoma cells in the back of C57/B16 mice formed a blackish tumor mass, which in untreated control mice reached to a tumor area of 3.7±0.7 and 9.3±1.1 cm2 in female and male, respectively, after 21 days of cells inoculation.

A further assay concerns the target T1, human tyrosinase (Homo sapiens, UniProt P14679).
T1 sequence (P14679 19-529): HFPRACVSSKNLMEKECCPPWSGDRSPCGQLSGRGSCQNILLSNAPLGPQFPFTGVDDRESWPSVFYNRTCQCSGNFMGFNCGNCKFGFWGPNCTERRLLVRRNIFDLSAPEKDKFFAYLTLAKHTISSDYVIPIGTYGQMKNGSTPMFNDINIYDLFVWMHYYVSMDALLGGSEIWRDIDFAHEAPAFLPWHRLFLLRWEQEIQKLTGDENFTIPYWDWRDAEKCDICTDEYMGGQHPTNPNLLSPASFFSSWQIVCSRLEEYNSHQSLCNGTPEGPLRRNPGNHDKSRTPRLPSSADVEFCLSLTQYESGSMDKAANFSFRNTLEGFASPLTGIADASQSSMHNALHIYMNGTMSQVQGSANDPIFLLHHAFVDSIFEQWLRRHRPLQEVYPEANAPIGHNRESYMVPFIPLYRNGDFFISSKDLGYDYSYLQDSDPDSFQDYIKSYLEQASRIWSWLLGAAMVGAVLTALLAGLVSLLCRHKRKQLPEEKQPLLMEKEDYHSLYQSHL
In words: Tyrosinase-catalyzed oxidation, steady-state kinetics. In kind it is biochemical. The arrangement: Human tyrosinase was purified to homogeneity from SkMel-28 (1×10^8 cells) following the protocol designed by Yurkow and Laskin (1989); endogenous in cells; host or cells: SkMel-28. Conditions: human tyrosinase from SkMel-28, pH 5.5, 25° C.; read-out: Michaelis-Menten constant (Km). The protocol: The arrow represents the absorbance direction and the time between recordings was 1 min. […] Data was fitted to the Michaelis-Menten equation using non-lineal regression analysis.
Human tyrosinase was purified to homogeneity from SkMel-28 (1×10^8 cells) following the protocol designed by Yurkow and Laskin (1989). TMECG oxidation catalyzed by human tyrosinase was followed using a Perkin-Elmer Lambda-35 spectrophotometer. Steady-state kinetic constants were obtained by measuring the initial rates of TMECG oxidation at 412 nm in 30 mM sodium acetate buffer, pH 5.5 and 25° C.

On to `COc1cc(C(=O)O[C@@H]2Cc3c(O)cc(O)cc3O[C@@H]2c2ccc(O)c(O)c2)cc(OC)c1OC` [TMECG, 3-O-(3,4,5-trimethoxybenzoyl)-(−)-epicatechin], for which the “DHFR mRNA and protein level” value in the assay on DHFR mRNA and protein was “reduced DHFR mRNA and protein to normal levels”. In addition, the tumor mass reduction in assay [1] (females, TMECG 2.5 mg/Kg/d) stood at 27%. The “effect of single treatments” value in assay [1] (male mice) is “not effective”. For the same molecule, the Km (as a rule, the concentration of substrate that gives half-maximal velocity) on human tyrosinase turned out to be 120 ± 20 µM.
